These compounds were tested on Ba/F3-CDM cells (Ba/F3 transfected with CD8-MerTK) (assay: In cell MER kinase assay, Ba/F3-CDM cell proliferation without IL-3 (Celltiter-Glo, GI50)). Conditions: 48 hours, read-out: Cell growth inhibition (GI50).
Assay type: cell-based, murine
Description: In Cell MER Kinase Assay Using BaF3 Cellular System
To establish an in cell kinase assay for MerTK kinase, the IL-3 dependent Ba/F3 cells of murine lymphoid origin was transfected with CD8-MerTK. […] For a routine cellular assay, Ba/F3-CDM cells were seeded at 2,000 cells per well in 384-well cell culture plate containing DMEM/10% FBS culture media and incubated for 24 hours before addition of compounds pre-diluted in culture media. Following compound treatment, cells were further incubated for 48 hours and the proliferation was measured. To discriminate a Ba/F3 growth inhibition by a specific inhibition of MerTK kinase following compound treatment vs growth inhibition due to a non-specific unintended cytotoxicity of compounds, we routinely carried out control sets of Ba/F3 cells in parallel that grown in IL3-supplemented growth media. In the presence of IL-3, the proliferation of Ba/F3 is no longer dependent on the MerTK activity. Cell growth and proliferation was measured with Celltiter-Glo™ system (Promega, USA) according to the manufacturer's instruction. The half-maximal growth inhibitory concentration (GI50) value was calculated with Prism6.0 software (GraphPad, USA).

First: CN(C)CCOc1ccc(-c2ccc(CO[C@H]3CCC[C@@H]3NC(=O)c3cc(-c4cnn(C)c4)cnc3N)cc2)cc1 [Example 245, 2-amino-N-((1S,2S)-2-((4′-(2-(dimethylamino)ethoxy)-[1,1′-biphenyl]-4-yl)methoxy)cyclopentyl)-5-(1-methyl-1H-pyrazol-4-yl)nicotinamide]
Second: CC1CN[C@@H](C)CN1Cc1ccc(-c2ccc(CO[C@H]3CCC[C@@H]3NC(=O)c3cc(-c4cnn(C)c4)cnc3N)cc2)cc1 (stereo partly drawn) [Example 191, 2-amino-N-((1S,2S)-2-((4′-((trans-2,5-dimethylpiperazin-1-yl)methyl)-[1,1′-biphenyl]-4-yl)methoxy)cyclopentyl)-5-(1-methyl-1H-pyrazol-4-yl)nicotinamide]
The GI50 of the first is higher: 0.5 to 1 µM for the first, 0.1 to 0.5 µM for the second.

CC(c1ccc(-c2ccc(CO[C@H]3CCC[C@@H]3NC(=O)c3cc(-c4cncc(F)c4)cnc3N)cc2)cc1)N1CCN(C)CC1 (stereo partly drawn) [Example 230, 6-amino-5′-fluoro-N-((1S,2S)-2-((4′-(1-(4-methylpiperazin-1-yl)ethyl)-[1,1′-biphenyl]-4-yl)methoxy)cyclopentyl)-[3,3′-bipyridine]-5-carboxamide] and C[C@H](c1ccc(-c2ccc(CO[C@H]3CCC[C@@H]3NC(=O)c3cc(-c4cnn(C)c4)cnc3N)cc2)cc1)N1CCN(C)CC1 [Example 214, 2-amino-5-(1-methyl-1H-pyrazol-4-yl)-N-((1S,2S)-2-((4′-((R)-1-(4-methylpiperazin-1-yl)ethyl)-[1,1′-biphenyl]-4-yl)methoxy)cyclopentyl)nicotinamide] cannot be ordered by GI50: less than 0.1 µM for the first, less than 0.1 µM for the second.

CCc1cc(CO[C@H]2CNC[C@@H]2NC(=O)c2cc(-c3ccc(NS(C)(=O)=O)cc3)cnc2N)ccc1C [Example 401, 2-amino-N-((3S,4S)-4-((3-ethyl-4-methylbenzyl)oxy)pyrrolidin-3-yl)-5-(4-(methylsulfonamido)phenyl)nicotinamide] and Cc1ccc(CO[C@H]2CNC[C@@H]2NC(=O)c2cc(-c3cnn(C)c3)cnc2N)cc1 [Example 415, 2-amino-5-(1-methyl-1H-pyrazol-4-yl)-N-((3S,4S)-4-((4-methylbenzyl)oxy)pyrrolidin-3-yl)nicotinamide] cannot be ordered by GI50: greater than 1 µM for the first, greater than 1 µM for the second.

Cn1cc(-c2cnc(N)c(C(=O)N[C@H]3COC[C@@H]3OCc3ccc(-c4ccc(CN5CCN(CCO)CC5)cc4)cc3)c2)cn1 [Example 451, 2-amino-N-((3S,4R)-4-((4′-((4-(2-hydroxyethyl)piperazin-1-yl)methyl)-[1,1′-biphenyl]-4-yl)methoxy)tetrahydrofuran-3-yl)-5-(1-methyl-1H-pyrazol-4-yl)nicotinamide] and CN1C[C@H](NC(=O)c2cc(-c3cnn(C)c3)cnc2N)[C@@H](OCc2ccc(-c3ccc(CN4CCN(CCO)CC4)cc3)cc2)C1 [Example 447, 2-amino-N-((3S,4S)-4-((4′-((4-(2-hydroxyethyl)piperazin-1-yl)-methyl)-[1,1′-biphenyl]-4-yl)methoxy)-1-methylpyrrolidin-3-yl)-5-(1-methyl-1H-pyrazol-4-yl)nicotinamide] cannot be ordered by GI50: less than 0.1 µM for the first, less than 0.1 µM for the second.

CN1CCN(Cc2ccc(-c3ccc(CO[C@H]4CCC[C@@H]4NC(=O)c4cc(-c5ccncc5)cnc4N)cc3)cc2)CC1 [Example 377, 6-amino-N-((1S,2S)-2-((4′-((4-methylpiperazin-1-yl)methyl)-[1,1′-biphenyl]-4-yl)methoxy)cyclopentyl)-[3,4′-bipyridine]-5-carboxamide] and C[C@@H]1CN(Cc2ccc(-c3ccc(CO[C@H]4CCC[C@@H]4NC(=O)c4cc(-c5cnn(C)c5)cnc4N)cc3)cc2)CCN1C [Example 186, 2-amino-N-((1S,2S)-2-((4′-(((R)-3,4-dimethylpiperazin-1-yl)-methyl)-[1,1′-biphenyl]-4-yl)methoxy)cyclopentyl)-5-(1-methyl-1H-pyrazol-4-yl)-nicotinamide] cannot be ordered by GI50: less than 0.1 µM for the first, less than 0.1 µM for the second.

Source: patent US10947215B2, “Heteroaryl compounds and their use as therapeutic drugs” (Dong-A Socio Holdings Co., Ltd., priority 2015, dated 2021)
